Data taken from article PMC5436585 (ACS chemical biology, 2016).

Molecular target: T1, SltB3 (Pseudomonas aeruginosa, UniProt Q9HX28)
T1 sequence (Q9HX28 33-448): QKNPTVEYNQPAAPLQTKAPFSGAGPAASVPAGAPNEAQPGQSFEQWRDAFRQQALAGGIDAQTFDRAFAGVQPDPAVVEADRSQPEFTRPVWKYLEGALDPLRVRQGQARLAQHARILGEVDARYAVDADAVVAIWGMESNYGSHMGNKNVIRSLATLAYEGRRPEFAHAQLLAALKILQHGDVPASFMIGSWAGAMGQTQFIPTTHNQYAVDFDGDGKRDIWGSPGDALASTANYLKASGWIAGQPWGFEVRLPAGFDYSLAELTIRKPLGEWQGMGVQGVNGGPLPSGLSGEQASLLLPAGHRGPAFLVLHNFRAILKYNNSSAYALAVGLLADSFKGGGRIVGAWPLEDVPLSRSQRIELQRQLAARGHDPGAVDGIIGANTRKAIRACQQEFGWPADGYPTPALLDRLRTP
Assay: LC/MS product quantification, nonlinear regression
Assay type: biochemical
Conditions: 20 mM HEPES, 0.1 M NaCl, 0.1% Triton X, pH 7.0, 25 °C; 8 nM enzyme

CO[C@@H]1O[C@H](CO)[C@@H](O[C@@H]2O[C@H](CO)[C@@H](O[C@@H]3O[C@H](CO)[C@@H](O[C@@H]4O[C@H](CO)[C@@H](O)[C@H](O)[C@H]4NC(C)=O)[C@H](O[C@H](C)C(=O)N[C@@H](C)C(=O)N[C@H](CCC(=O)N[C@@H](CCC[C@@H](N)C(=O)O)C(=O)N[C@H](C)C(=O)N[C@H](C)C(=O)O)C(=O)O)[C@H]3NC(C)=O)[C@H](O)[C@H]2NC(C)=O)[C@H](O[C@H](C)C(=O)N[C@@H](C)C(=O)N[C@H](CCC(=O)N[C@@H](CCC[C@@H](N)C(=O)O)C(=O)N[C@H](C)C(=O)N[C@H](C)C(=O)O)C(=O)O)[C@H]1NC(C)=O [compound 1]
Km: 200 ± 20 µM
